In patent publication US8299048B2, “Hexahydrocyclopentyl[f]indazole sulfonamides and derivatives thereof as selective glucocorticoid receptor modulators” (Merck Sharp & Dohme Corp., priority 2008, dated 2012):

Target: T1, glucocorticoid receptor (Homo sapiens, UniProt P04150)
T1 construct: endogenous in cells
T1 sequence (P04150 1-777): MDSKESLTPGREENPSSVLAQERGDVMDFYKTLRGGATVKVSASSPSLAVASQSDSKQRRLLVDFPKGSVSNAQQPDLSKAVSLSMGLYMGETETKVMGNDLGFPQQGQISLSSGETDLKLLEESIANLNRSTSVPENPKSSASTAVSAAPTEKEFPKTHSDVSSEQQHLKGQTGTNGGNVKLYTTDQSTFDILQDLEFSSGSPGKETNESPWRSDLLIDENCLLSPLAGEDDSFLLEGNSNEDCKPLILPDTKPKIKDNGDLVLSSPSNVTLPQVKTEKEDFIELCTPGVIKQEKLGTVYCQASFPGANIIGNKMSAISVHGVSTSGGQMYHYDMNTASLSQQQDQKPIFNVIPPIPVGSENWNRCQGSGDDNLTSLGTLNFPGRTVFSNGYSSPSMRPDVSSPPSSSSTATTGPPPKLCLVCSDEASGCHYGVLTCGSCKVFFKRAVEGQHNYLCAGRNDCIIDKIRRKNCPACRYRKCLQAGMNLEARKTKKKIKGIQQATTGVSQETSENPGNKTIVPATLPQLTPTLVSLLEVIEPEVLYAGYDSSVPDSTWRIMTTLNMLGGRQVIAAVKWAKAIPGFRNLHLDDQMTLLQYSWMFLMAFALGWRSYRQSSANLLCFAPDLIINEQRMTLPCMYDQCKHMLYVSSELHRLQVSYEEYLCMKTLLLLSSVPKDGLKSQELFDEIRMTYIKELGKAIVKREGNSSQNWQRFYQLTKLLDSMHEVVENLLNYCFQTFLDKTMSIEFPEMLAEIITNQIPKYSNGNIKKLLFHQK
Assay: Ligand binding assay (GR BIND)
Summary of the method: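 Cytosol from freeze–thawed cells in TEGM (pH 7.2, 10 mM molybdate) was incubated overnight at 4 °C with compound and [3H]-dexamethasone trace (added as 6 nM solution), 2% EtOH final. Bound ligand was captured on hydroxylapatite, filtered, washed and scintillation counted. Values were calculated with dexamethasone as reference.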

Row | SMILES | Ki [nM]
1 | C[C@]12Cc3cnn(-c4ccc(F)cc4)c3C=C1CC[C@@H]2CN(CC1CC1)S(=O)(=O)/C=C/c1ccccc1 [Example 13, (E)-N-(cyclopropylmethyl)-N-{[(4αR,5S)-1-(4-fluorophenyl)-4α-methyl-1,4,4α,5,6,7-hexahydrocyclopenta[f]indazol-5-yl]methyl}-2-phenylethylenesulfonamide] | 0.6
2 | CNC(=O)Nc1ccc(S(=O)(=O)N(CC2CC2)C[C@H]2CCC3=Cc4c(cnn4-c4ccc(F)cc4)C[C@@]32C)c(Cl)c1 [Example 14, 2-chloro-N-(cyclopropylmethyl)-N-{[(4αR,5S)-1-(4-fluorophenyl)-4α-methyl-1,4,4α,5,6,7-hexahydrocyclopenta[f]indazol-5-yl]methyl}-4-{[(methylamino)carbonyl]amino}-benzenesulfonamide] | 1.6
3 | C[C@]12Cc3cnn(-c4ccc(F)cc4)c3C=C1CC[C@@H]2CN(CC1CC1)S(=O)(=O)c1ccc(F)c(Cl)c1 [Example 15, 3-chloro-N-(cyclopropylmethyl)-4-fluoro-N-{[(4αR,5S)-1-(4-fluorophenyl)-4α-methyl-1,4,4α,5,6,7-hexahydrocyclopenta[f]indazol-5-yl]methyl}benzenesulfonamide] | 1.8
4 | C[C@]12Cc3cnn(-c4ccc(F)cc4)c3C=C1CC[C@@H]2CN(CCC#N)S(=O)(=O)c1ccccc1F [Example 16, N-(2-cyanoethyl)-2-fluoro-N-{[(4αR,5S)-1-(4-fluorophenyl)-4α-methyl-1,4,4α,5,6,7-hexahydrocyclopenta[f]indazol-5-yl]methyl}benzenesulfonamide] | 3
5 | C[C@]12Cc3cnn(-c4ccc(F)cc4)c3C=C1CC[C@@H]2CN(CCO)S(=O)(=O)c1ccccc1F [Example 17, 2-fluoro-N-{[(4αR,5S)-1-(4-fluorophenyl)-4α-methyl-1,4,4α,5,6,7-hexahydrocyclopenta[f]indazol-5-yl]methyl}-N-(2-hydroxyethyl)benzenesulfonamide] | 2.1
6 | COC(=O)c1ccccc1S(=O)(=O)N(CC1CC1)C[C@H]1CCC2=Cc3c(cnn3-c3ccc(F)cc3)C[C@@]21C [Example 18, methyl 2-[((cyclopropylmethyl){[(4αR,5S)-1-(4-fluorophenyl)-4α-methyl-1,4,4α,5,6,7-hexahydrocyclopenta[f]indazol-5 yl]methyl}amino)sulfonyl]benzoate] | 0.8
7 | C[C@]12Cc3cnn(-c4ccc(F)cc4)c3C=C1CC[C@@H]2CN(CCO)S(=O)(=O)c1ccc(F)c(Cl)c1 [Example 19, 3-chloro-4-fluoro-N-{[(4αR,5S)-1-(4-fluorophenyl)-4α-methyl-1,4,4α,5,6,7-hexahydrocyclopenta[f]indazol-5-yl]methyl}-N-(2-hydroxyethyl)benzenesulfonamide] | 4
8 | C[C@]12Cc3cnn(-c4ccc(F)cc4)c3C=C1CC[C@@H]2CN(CC#N)S(=O)(=O)c1ccc(F)c(Cl)c1 [Example 20, 3-chloro-N-(cyanomethyl)-4-fluoro-N-{[(4αR,5S)-1-(4-fluorophenyl)-4α-methyl-1,4,4α,5,6,7-hexahydrocyclopenta[f]indazol-5-yl]methyl}benzenesulfonamide] | 2.2
9 | C[C@]12Cc3cnn(-c4ccc(F)cc4)c3C=C1CC[C@@H]2CN(CC1CC1)S(=O)(=O)Cc1ccccc1 [Example 21, N-(cyclopropylmethyl)-N-{[(4αR,5S)-1-(4-fluorophenyl)-4α-methyl-1,4,4α,5,6,7-hexahydrocyclopenta[f]indazol-5-yl]methyl}-1-phenylmethanesulfonamide] | 3
10 | Cc1oncc1S(=O)(=O)N(CC#N)C[C@H]1CCC2=Cc3c(cnn3-c3ccc(F)cc3)C[C@@]21C [Example 23, N-(cyanomethyl)-N-{[(4αR,5S)-1-(4-fluorophenyl)-4α-methyl-1,4,4α,5,6,7-hexahydrocyclopenta[f]indazol-5-yl]methyl}-5-methylisoxazole-4-sulfonamide] | 4.9
11 | C[C@]12Cc3cnn(-c4ccc(F)cc4)c3C=C1CC[C@@H]2CN(CC#N)S(=O)(=O)c1cc(Cl)c(Cl)s1 [Example 24, 4,5-dichloro-N-(cyanomethyl)-N-{[(4αR,5S)-1-(4-fluorophenyl)-4α-methyl-1,4,4α,5,6,7-hexahydrocyclopenta[f]indazol-5-yl]methyl}thiophene-2-sulfonamide] | 5.3
12 | C[C@]12Cc3cnn(-c4ccc(F)cc4)c3C=C1CC[C@@H]2CN(CC#N)S(=O)(=O)c1ccc(F)c(F)c1 [Example 25, N-(cyanomethyl)-3,4-difluoro-N-{[(4αR,5S)-1-(4-fluorophenyl)-4α-methyl-1,4,4α,5,6,7-hexahydrocyclopenta[f]indazol-5-yl]methyl}benzenesulfonamide] | 2.5
13 | C[C@]12Cc3cnn(-c4ccc(F)cc4)c3C=C1CC[C@@H]2CN(CC#N)S(=O)(=O)c1cccc(Cl)c1Cl [Example 26, 2,3-dichloro-N-(cyanomethyl)-N-{[(4αR,5S)-1-(4-fluorophenyl)-4α-methyl-1,4,4α,5,6,7-hexahydrocyclopenta[f]indazol-5-yl]methyl}benzenesulfonamide] | 9.7
14 | C[C@]12Cc3cnn(-c4ccc(F)cc4)c3C=C1CC[C@@H]2CN(CC#N)S(=O)(=O)c1ccc(Cl)c(C(F)(F)F)c1 [Example 27, 4-chloro-N-(cyanomethyl)-N-{[(4αR,5S)-1-(4-fluorophenyl)-4α-methyl-1,4,4α,5,6,7-hexahydrocyclopenta[f]indazol-5-yl]methyl}-3-(trifluoromethyl)benzenesulfonamide] | 8.8
15 | C[C@]12Cc3cnn(-c4ccc(F)cc4)c3C=C1CC[C@@H]2CN(CC#N)S(=O)(=O)c1ccc(C#N)cc1 [Example 28, 4-cyano-N-(cyanomethyl)-N-{[(4αR,5S)-1-(4-fluorophenyl)-4α-methyl-1,4,4α,5,6,7-hexahydrocyclopenta[f]indazol-5-yl]methyl}benzenesulfonamide] | 2.3
16 | Cc1cc(S(=O)(=O)N(CC#N)C[C@H]2CCC3=Cc4c(cnn4-c4ccc(F)cc4)C[C@@]32C)c(C)cc1Cl [Example 29, 4-chloro-N-(cyanomethyl)-N-{[(4αR,5S)-1-(4-fluorophenyl)-4α-methyl-1,4,4α,5,6,7-hexahydrocyclopenta[f]indazol-5-yl]methyl}-2,5-dimethylbenzenesulfonamide] | 8.4
17 | C[C@]12Cc3cnn(-c4ccc(F)cc4)c3C=C1CC[C@@H]2CN(CC#N)S(=O)(=O)Cc1cccc(C(F)(F)F)c1 [Example 30, N-(cyanomethyl)-N-{[(4αR,5S)-1-(4-fluorophenyl}-4α-methyl-1,4,4α,5,6,7-hexahydrocyclopenta[f]indazol-5-yl]methyl}-1-[3-(trifluoromethyl)phenyl]methanesulfonamide] | 7.6
18 | Cc1ccc(S(=O)(=O)N(CC#N)C[C@H]2CCC3=Cc4c(cnn4-c4ccc(F)cc4)C[C@@]32C)s1 [Example 31, N-(cyanomethyl)-N-{[(4αR,5S)-1-(4-fluorophenyl}-4α-methyl-1,4,4α,5,6,7-hexahydrocyclopenta[f]indazol-5-yl]methyl}-5-methylthiophene-2-sulfonamide] | 6.1
19 | Cn1cc(S(=O)(=O)N(CC#N)C[C@H]2CCC3=Cc4c(cnn4-c4ccc(F)cc4)C[C@@]32C)c(C(F)(F)F)n1 [Example 32, N-(cyanomethyl)-N-{[(4αR,5S)-1-(4-fluorophenyl}-4α-methyl-1,4,4α,5,6,7-hexahydrocyclopenta[f]indazol-5-yl]methyl}-1-methyl-3-(trifluoromethyl)-1H-pyrazole-4-sulfonamide] | 3.9
20 | Cc1cc(S(=O)(=O)N(CC#N)C[C@H]2CCC3=Cc4c(cnn4-c4ccc(F)cc4)C[C@@]32C)c(C)o1 [Example 33, (4αR,5S)-5-({(cyanomethyl)[(2,5-dimethyl-3-furyl)sulfonyl]amino}methyl)-1-(4-fluorophenyl)-4α-methyl-1,4,4α,5,6,7-hexahydrocyclopenta[f]indazol-2-ium] | 8.8
21 | COC(=O)c1sccc1S(=O)(=O)N(CC#N)C[C@H]1CCC2=Cc3c(cnn3-c3ccc(F)cc3)C[C@@]21C [Example 34, methyl 3-[((cyanomethyl){[(4αR,5S)-1-(4-fluorophenyl)-4α-methyl-1,4,4α,5,6,7-hexahydrocyclopenta[f]indazol-5-yl]methyl}amino)sulfonyl]thiophene-2-carboxylate] | 1.7
22 | Cn1nc(C(F)(F)F)cc1-c1ccc(S(=O)(=O)N(CC#N)C[C@H]2CCC3=Cc4c(cnn4-c4ccc(F)cc4)C[C@@]32C)s1 [Example 35] | 5.1
23 | C[C@]12Cc3cnn(-c4ccc(F)cc4)c3C=C1CC[C@@H]2CN(CC#N)S(=O)(=O)c1cccc(C#N)c1 [Example 36, 3-cyano-N-(cyanomethyl)-N-{[(4αR,5S)-1-(4-fluorophenyl)-4α-methyl-1,4,4α,5,6,7-hexahydrocyclopenta[f]indazol-5-yl]methyl}benzenesulfonamide] | 2.5
